Key:
[1] = test system: Mus musculus; experiment: Antiinflammatory activity against TPA-induced ear edema in BALB/c mouse assessed as effect on weight of ear punches at 100 mg/kg, po administered 6 mins prior to TPA challenge and treated twice in 4 hrs and measured after 6 hrs post administration (reference value: 4.5 +/- 0.18 mg); assay type: functional
[2] = test system: Mus musculus; experiment: Antiinflammatory activity against TPA-induced ear edema in BALB/c mouse assessed as inhibition of ear edema at 50 mg/kg, po administered 6 mins prior to TPA challenge and treated twice in 4 hrs and measured after 6 hrs post administration relative to control; assay type: functional
[3] = test system: Mus musculus; experiment: Antiinflammatory activity against TPA-induced ear edema in BALB/c mouse assessed as inhibition of ear edema at 100 mg/kg, po administered 6 mins prior to TPA challenge and treated twice in 4 hrs and measured after 6 hrs post administration relative to control; assay type: functional
[4] = Tmax in rat at 10 to 480 mg/kg, po; assay type: ADME, organism-based; conditions: in vivo

CC(=O)Oc1ccccc1C(=O)O [ASPIRIN]
Activity [1]: 11.2 mg

CCc1cccc2c3c([nH]c12)C(CC)(CC(=O)O)OCC3 (stereo not given) [ETODOLAC]
Activity [1]: 11.1 mg

CC1(C)[C@@H](O[C@H]2O[C@H](C(=O)O)[C@@H](O)[C@H](O)[C@H]2O[C@@H]2O[C@H](C(=O)O)[C@@H](O)[C@H](O)[C@H]2O)CC[C@]2(C)[C@H]3C(=O)C=C4[C@@H]5C[C@@](C)(C(=O)O)CC[C@]5(C)CC[C@@]4(C)[C@]3(C)CC[C@@H]12 [GLYCYRRHIZIN]
Activity [1]: 12.7 mg | inhibition in vivo at 50 mg/kg [2]: -5.41% | inhibition in vivo at 100 mg/kg [3]: -10.8%

CC(C)Cc1ccc(C(C)C(=O)O)cc1 (stereo not given) [IBUPROFEN]
Activity [1]: 8.8 mg

COc1ccc2cc([C@H](C)C(=O)O)ccc2c1 [NAPROXEN]
Activity [1]: 11.5 mg

Cc1c(Cl)cccc1Nc1ccccc1C(=O)O [TOLFENAMIC ACID]
Tmax [4]: 2 to 3 h | inhibition in vivo at 50 mg/kg [2]: 35.1% | inhibition in vivo at 100 mg/kg [3]: 51.4%
